Results published in publication PMC6235536 (Science Advances, 2018).
Blank lines part the entries; values can stand above or below the molecule they belong to. Residues, ends and D or L forms follow the SMILES beside them.

Key:
E. coli = conditions: IM or OM of E. coli; cited from earlier work
Gram-negative strains = conditions: all the Gram-negative strains tested; cited from earlier work
[1] = target: LptA labeled with DyLight650 (E. coli) (UniProt P0ADV1); test: MST
LptA-His6 (E. coli) = LptA-His6 (E. coli) (UniProt P0ADV1); test: fluorescence polarisation

Molecule: CC[C@H](C)CCCCC(=O)N[C@@H](CCN)C(=O)N[C@H](C(=O)N[C@@H](CCN)C(=O)N[C@H]1CCNC(=O)[C@H]([C@@H](C)O)NC(=O)[C@H](CCN)NC(=O)[C@H](CCN)NC(=O)[C@H](CC(C)C)NC(=O)[C@@H](CC(C)C)NC(=O)[C@H](CCN)NC1=O)[C@@H](C)O [Colistin] (HELM PEPTIDE1{[CC[C@H](C)CCCCC(=O)[*:2]].[Dab].T.[Dab].[Dab].[Dab].[dL].L.[Dab].[Dab].T}$PEPTIDE1,PEPTIDE1,5:R3-11:R2$$$V2.0; N-terminus assumed; bridges inferred)
membrane permeabilization by other cationic antimicrobial peptides (E. coli): unlike what is seen with some other cationic antimicrobial peptides

Molecule: D-thanatin: enantiomeric form of thanatin (comprising all D-amino acids)
activity of enantiomeric form (Gram-negative strains): loses much of its activity

Molecule: polymyxin B
membrane permeabilization by other cationic antimicrobial peptides (E. coli): unlike what is seen with some other cationic antimicrobial peptides

Kd [1]: 20 nM
Molecule: thanatin (peptide)

Kd (LptA-His6 (E. coli)): 12 nM
Molecule: thanatin-BDP-FL (peptide)
